Measurements as given in patent EP0489933A1, “BILE ALCOHOL AND DRUG CONTAINING THE SAME AS ACTIVE INGREDIENT” (TSUMURA CO., LTD., priority 1990, dated 1992).
Where two headings read alike, the source gives them in different places.

Tests used:
erythrocytes = test: Erythrocyte deformability (filtration through 5 µm filter) after oral administration; format: in vivo, male rats of Wistar line; conditions: 30 mg/kg, p.o.; blood collected 90 minutes after administration; number of filtered erythrocytes
Protocol: In this experiment, 9-week-old male rats of Wistar line (5 to 6 individuals per one group) were used after rearing them for 1 week with normal feed. After 24 hours of fasting, each test drug was administered orally and, 90 minutes thereafter, blood sample was collected from lower abdominal vena cava of each rat under anesthesia with Nembutal® (1 ml/kg, i.p.). Blood samples obtained in this way were checked for their blood clotting time and erythrocyte deformability.
Measuring procedures are as follows.
Erythrocyte deformability ... The collected blood is extruded from a syringe with a constant flow of He in a holder equipped with a filter (5 µm). Weight of blood and the number of erythrocytes filtered during a fixed time are measured and the deformability is expressed based on the number of filtered erythrocytes. The results of these measurements are shown respectively in Tables 11 and 12.

[1] = test system: rats of diabetes mellitus; test: Blood sugar level in streptozotocin-induced diabetes mellitus; format: in vivo, male rats of Wistar line; conditions: 50 mg/kg, i.o.; administered for 1 week beginning 1 week after streptozotocin (40 mg/kg); serum
Protocol: In this experiment, 8-week-old male rats of Wistar line (5 individuals per one group) were used after rearing them for 1 week with normal feed. Streptozotocin (40 mg/kg) was administered by tail intravenous injection to obtain rats of diabetes mellitus. Beginning after 1 week of the streptozotocin administration, oral administration of each test drug has been carried out for 1 week, followed by 24 hours of fasting. Thereafter, blood sample was collected from lower abdominal vena cava under anesthesia with Nembutal® (1 ml/kg, i.p.). Serum samples were prepared from the thus collected blood samples and checked for their blood sugar levels, with the results shown in Table 9.

male mice of ddY line [2] = test: Survival time under hypoxia (aeration with 96% nitrogen and 4% oxygen); format: in vivo; conditions: 50 mg/kg, i.p., 60 minutes before aeration with 96% nitrogen and 4% oxygen; time to respiratory arrest
Protocol: In this experiment, 5 to 6-week-old male mice of ddY line (10 individuals per one group) were used after fasting treatment for 24 hours.
Each compound obtained in the present invention was administered intraperitoneally. After 60 minutes of the administration, each mouse was transferred separately into a transparent vessel (capacity, 1,000 ml) equipped with an air exit, and the vessel was aerated with a mixed gas consisting of 96% nitrogen and 4% oxygen at an aeration rate of 5 ℓ/min.
All tested mice died within 180 seconds after the commencement of the gas mixture aeration. Terminal respiration was observed several times prior to the respiratory arrest. Survival time of the control group was roughly in the range of from 96 to 111 seconds.

male SD rats = test: Thrombus formation in abdominal vena cava; format: in vivo; conditions: 30 mg/kg, p.o.; dry weight of thrombus
Protocol: Each of male SD rats of 130 to 210 g in body weight was anesthetized with Nembutal® (50 mg/kg, i.p.) and subjected to median incision ventrotomy to release about a 2 cm portion of abdominal vena cava below the renal vein. Blood flow of the thus released vena cava was temporarily stopped for 5 minutes with 8 hemostatic clips. After recirculating blood for 5 minutes by removing the hemostatic clips, […] was ligated at a position just below the renal vein and the median-incised part was sutured. Two hours after the ligature, the thus treated rat was again subjected to ventrotomy to excise abdominal vena cava. The thus excised blood vessel was cut open on a filter paper which had been moistened with physiological saline, in order to take out thrombus. The thrombus thus obtained was washed with physiological saline to remove adhered blood and the like substances and then dried at 80°C for 12 hours or longer to measure its dry weight. In this instance, each drug to be tested was orally administered 90 minutes before the clipping to examine its effect by single administration on the formation of thrombus. Separately from this, each test drug was administered to 6-week-old male SD rat continuously for 7 days, thrombus was prepared in the eighth day in the same manner as described above and dry weight of the thrombus was measured, in order to examine effect of the continuous 7 day administration on the thrombus formation.

red blood cells = test: Inhibition of thermal hemolysis of red blood cells; format: cell-based, donryu rats; conditions: Rattus norvegicus, Erythrocyte, 20 min, 53°C for 20 minutes, read-out: Hemolysis Inhibition Ratio (%) against Control; for inhibition at 10 µM: 0.01 mM; for inhibition at 50 µM: 0.05 mM; for inhibition at 100 µM: 0.1 mM; for inhibition at 200 µM: 0.2 mM; for inhibition at 500 µM: 0.5 mM
Protocol: Blood was collected from donryu rats of 150 to 200 g in body weight and centrifuged at 1,500 rpm for 5 minutes to obtain red blood cells. The red blood cells thus collected were diluted with 0.15 M phosphate buffer (pH 7.4) to prepare a 5% red blood cell suspension. A 3.8 ml portion of the thus prepared suspension was mixed with 0.2 ml solution of each compound of the present invention which has been adjusted to each level of the concentrations as shown in the following table, and the resulting mixture was shaken thoroughly and incubated at 53°C for 20 minutes. Thereafter, the thus incubated mixture was cooled rapidly with tap water and centrifuged at 3,000 rpm for 15 minutes, and absorbance at 540 nm of the resulting supernatant fluid was measured using a spectrophotometer (Hitachi: Type 200-20). Inhibition rate (%) of red blood cell hemolysis at each concentration of the compound was calculated based on the absorbance, with the results shown in Table 8.

male rats of SD line = test: High cholesterol feed: blood viscosity, serum total cholesterol, triglyceride, GOT; format: in vivo; conditions: 100 mg/kg/day, p.o., 4 days
Protocol: In this experiment, 5-week-old male rats of SD line (5 individuals per one group) were used after rearing them for 1 week using normal feed, and each compound of the present invention (100 mg/kg) was administered orally once a day for 4 days. Simultaneously with the commencement of the administration, the normal feed was replaced by a high cholesterol feed. After completion of the administration, they were subjected to fasting treatment for 24 hours. Thereafter, each rat was subjected to ventrotomy under anesthesia with Nembutal® (Dainabot Co., Ltd.; 50 mg/kg, i.p.) to collect blood from abdominal aorta, and the collected blood sample was checked for its blood viscosity using a viscometer (Biolyzer, Tokyo Keiki Co., Ltd.). At the same time, total cholesterol (Wako Pure Chemical Industries, Ltd.; Cholesterol E-test wako), triglyceride (Wako Pure Chemical Industries, Ltd.; Triglyceride G-test wako) and GOT (Wako Pure Chemical Industries, Ltd.; GOT-UV test-wako) in serum samples were measured.

male mice of ddY line [3] = format: in vivo; conditions: 50 mg/kg, i.p., 60 minutes before KCN (3.0 mg/kg) tail intravenous injection; for Survival Time ±S.E.: time to respiratory arrest
male rats of SHR line = test: Blood pressure in SHR rats; format: in vivo; conditions: 10 mg/kg, p.o., 2 weeks
Protocol: In this experiment, 12-week-old male rats of SHR line (5 to 6 individuals per one group) were used after rearing them for 1 week with normal feed. Oral administration of each test drug has been carried out for 2 weeks and then blood pressure (mmHg) was measured using a small animal hemomanometer (UR-1000).

Structure (SMILES): C[C@H](CCCC(CO)CO)[C@H]1CC[C@H]2[C@@H]3[C@H](O)C[C@H]4C[C@H](O)CC[C@]4(C)[C@H]3C[C@H](O)[C@]12C [Example 7, 3α,7α,12α,26,27-pentahydroxy-5α-cholestane]
- Erythrocyte Deformation: Erythrocyte counts ±S.E. (erythrocytes): 4.02 ± 0.37 × 10⁷
- Blood Sugar Level ± S.E. [1]: 161 ± 5.5 mg/dL
- Survival Time ±S.E. (male mice of ddY line [2]): 121.5 ± 6.00 s
- Antithrombotic Effect: Thrombus weight ±S.E. (male SD rats): 12.2 ± 1.33 mg
- inhibition at 10 µM (red blood cells): 32%
- inhibition at 50 µM (red blood cells): 21%
- inhibition at 100 µM (red blood cells): 31%
- inhibition at 200 µM (red blood cells): 61%
- inhibition at 500 µM (red blood cells): 70%
- GOT ±S.E. (male rats of SD line): 138 ± 18 IU/ℓ
- Total Cholesterol ±S.E. (male rats of SD line): 385 ± 58 mg/dL
- Triglyceride ±S.E. (male rats of SD line): 92 ± 31 mg/dL
- Lethality (%) (male mice of ddY line [3]): 80%
- Survival Time ±S.E. (male mice of ddY line [3]): 89 ± 9.99 s
- Blood Pressure ±S.E. Average (male rats of SHR line): 155 ± 3.6 mmHg
- Blood Pressure ±S.E. Maximum (male rats of SHR line): 198 ± 3.7 mmHg

Structure (SMILES): C[C@H](CC[C@H](O)C(CO)CO)[C@H]1CC[C@H]2[C@@H]3[C@H](O)C[C@@H]4C[C@H](O)CC[C@]4(C)[C@H]3C[C@H](O)[C@]12C [Example 8, (24S)-3α,7α,12α,24,26,27-hexahydroxy-5β-cholestane]
- Erythrocyte Deformation: Erythrocyte counts ±S.E. (erythrocytes): 4.53 ± 0.82 × 10⁷
- Blood Sugar Level ± S.E. [1]: 112 ± 8.4 mg/dL
- Survival Time ±S.E. (male mice of ddY line [2]): 144.8 ± 10.27 s
- Antithrombotic Effect: Thrombus weight ±S.E. (male SD rats): 10.5 ± 1.43 mg
- inhibition at 10 µM (red blood cells): 27%
- inhibition at 50 µM (red blood cells): 20%
- inhibition at 100 µM (red blood cells): 37%
- inhibition at 200 µM (red blood cells): 50%
- inhibition at 500 µM (red blood cells): 60%
- GOT ±S.E. (male rats of SD line): 140 ± 13 IU/ℓ
- Total Cholesterol ±S.E. (male rats of SD line): 410 ± 40 mg/dL
- Triglyceride ±S.E. (male rats of SD line): 87 ± 15 mg/dL
- Lethality (%) (male mice of ddY line [3]): 70%
- Survival Time ±S.E. (male mice of ddY line [3]): 123.0 ± 7.19 s
- Blood Pressure ±S.E. Average (male rats of SHR line): 151 ± 9.5 mmHg
- Blood Pressure ±S.E. Maximum (male rats of SHR line): 180 ± 6.6 mmHg

Structure (SMILES): C[C@H](CC[C@H](O)[C@@H](C)CO)[C@H]1CC[C@H]2[C@@H]3[C@H](O)C[C@@H]4C[C@H](O)CC[C@]4(C)[C@H]3C[C@H](O)[C@]12C [Example 9, (24S)-(25S)-3α,7α,12α,24,26-pentahydroxy-5β-cholestane]
- Erythrocyte Deformation: Erythrocyte counts ±S.E. (erythrocytes): 4.11 ± 0.44 × 10⁷
- Blood Sugar Level ± S.E. [1]: 125 ± 6.6 mg/dL
- Survival Time ±S.E. (male mice of ddY line [2]): 126.5 ± 5.21 s
- Antithrombotic Effect: Thrombus weight ±S.E. (male SD rats): 12.5 ± 2.44 mg
- inhibition at 10 µM (red blood cells): 28%
- inhibition at 50 µM (red blood cells): 23%
- inhibition at 100 µM (red blood cells): 38%
- inhibition at 200 µM (red blood cells): 51%
- inhibition at 500 µM (red blood cells): 65%
- GOT ±S.E. (male rats of SD line): 138 ± 8 IU/ℓ
- Total Cholesterol ±S.E. (male rats of SD line): 441 ± 51 mg/dL
- Triglyceride ±S.E. (male rats of SD line): 89 ± 41 mg/dL
- Lethality (%) (male mice of ddY line [3]): 80%
- Survival Time ±S.E. (male mice of ddY line [3]): 101.2 ± 10.1 s
- Blood Pressure ±S.E. Average (male rats of SHR line): 150 ± 8.9 mmHg
- Blood Pressure ±S.E. Maximum (male rats of SHR line): 199 ± 5.4 mmHg

Structure (SMILES): C[C@H](CC[C@H](O)[C@H](C)CO)[C@H]1CC[C@H]2[C@@H]3[C@H](O)C[C@@H]4C[C@H](O)CC[C@]4(C)[C@H]3C[C@H](O)[C@]12C [Example 10, (24S)-(25R) 3α,7α,12α,24,26-pentahydroxy-5β-cholestane]
- Erythrocyte Deformation: Erythrocyte counts ±S.E. (erythrocytes): 4.41 ± 0.54 × 10⁷
- Blood Sugar Level ± S.E. [1]: 133 ± 3.8 mg/dL
- Survival Time ±S.E. (male mice of ddY line [2]): 125.1 ± 3.89 s
- Antithrombotic Effect: Thrombus weight ±S.E. (male SD rats): 13.8 ± 2.85 mg
- inhibition at 10 µM (red blood cells): 24%
- inhibition at 50 µM (red blood cells): 21%
- inhibition at 100 µM (red blood cells): 31%
- inhibition at 200 µM (red blood cells): 44%
- inhibition at 500 µM (red blood cells): 58%
- GOT ±S.E. (male rats of SD line): 145 ± 7 IU/ℓ
- Total Cholesterol ±S.E. (male rats of SD line): 465 ± 59 mg/dL
- Triglyceride ±S.E. (male rats of SD line): 99 ± 29 mg/dL
- Lethality (%) (male mice of ddY line [3]): 80%
- Survival Time ±S.E. (male mice of ddY line [3]): 111.1 ± 9.11 s
- Blood Pressure ±S.E. Average (male rats of SHR line): 155 ± 9.5 mmHg
- Blood Pressure ±S.E. Maximum (male rats of SHR line): 191 ± 7.2 mmHg

Structure (SMILES): C[C@H](CC[C@@H](O)[C@@H](C)CO)[C@H]1CC[C@H]2[C@@H]3[C@H](O)C[C@@H]4C[C@H](O)CC[C@]4(C)[C@H]3C[C@H](O)[C@]12C [Example 11, (24R)-(25S)-3α,7α,12α,24,26-pentahydroxy-5β-cholestane]
- Erythrocyte Deformation: Erythrocyte counts ±S.E. (erythrocytes): 3.95 ± 0.64 × 10⁷
- Blood Sugar Level ± S.E. [1]: 187 ± 2.5 mg/dL
- Survival Time ±S.E. (male mice of ddY line [2]): 121.1 ± 2.60 s
- Antithrombotic Effect: Thrombus weight ±S.E. (male SD rats): 14.4 ± 2.01 mg
- inhibition at 10 µM (red blood cells): 20%
- inhibition at 50 µM (red blood cells): 18%
- inhibition at 100 µM (red blood cells): 30%
- inhibition at 200 µM (red blood cells): 43%
- inhibition at 500 µM (red blood cells): 51%
- GOT ±S.E. (male rats of SD line): 151 ± 15 IU/ℓ
- Total Cholesterol ±S.E. (male rats of SD line): 433 ± 71 mg/dL
- Triglyceride ±S.E. (male rats of SD line): 110 ± 33 mg/dL
- Lethality (%) (male mice of ddY line [3]): 80%
- Survival Time ±S.E. (male mice of ddY line [3]): 103.0 ± 7.56 s
- Blood Pressure ±S.E. Average (male rats of SHR line): 141 ± 9.1 mmHg
- Blood Pressure ±S.E. Maximum (male rats of SHR line): 188 ± 3.8 mmHg
